Experimental data taken from patent US20260324636A1, “COMPOSITION FOR PROVIDING PLANT WITH STRESS RESISTANCE” (KIRIN HOLDINGS KABUSHIKI KAISHA, priority 2022, published 2026).

Experiments:
HAC1 = HAC1 gene expression by real-time PCR, Example 15; format: in vivo; settings: Arabidopsis thaliana; 0.1 mM in medium, 2 hours after application, 22° C.; read-out: HAC1 expression level, increase vs group not subjected to the treatment
Experimental: The materials as used in Example 14 were used.
(§1) A liquid medium containing a ½ Murashige and Skoog Plant Salt Mixture (Nacalai) and 1 (w/v) % sucrose (FUJIFILM Wako) was used as a growth medium.
(§2) Arabidopsis thaliana seeds were sterilized with the use of a Kitchen Haiter® liquid (Kao Corporation) diluted to one-half concentration with distilled water for 3 minutes, washed 3 times with sterile distilled water, and then incubated at 4° C. overnight. The growth medium was dispensed at 1 ml/well on a 12-well microplate (IWAKI), 5 grains of the seeds were inoculated in each well, and the plate was transferred to the incubator (TOMY) to initiate growing. The incubator was maintained at a temperature of 22° C. for a daily cycle of 16 hours light and 8 hours darkness.
N-acetylglutamic acid was applied to Arabidopsis thaliana 7 days after inoculation to the final concentration of 0.1 mM in the medium, followed by incubation for 2 hours or 6 hours. The incubator was maintained at a temperature of 22° C. for a daily cycle of 16 hours light and 8 hours darkness. After incubation, the samples were frozen with liquid nitrogen, and RNA was extracted using the RNeasy Plant Mini Kit […]. […]
Thereafter, the relative expression levels of the target genes upon N-acetylglutamic acid treatment were calculated by the ΔΔCt method using the Cp values obtained by real-time PCR.

H1ZAT12 = H1ZAT12 gene expression by real-time PCR, Example 13; format: in vivo, hop; settings: 1 mM in medium, 20° C. for 2 hours, leaves; read-out: H1ZAT12 expression level, increase vs control
Excerpt: The materials as used in Example 4 were used.
The medium as used in Example 4 were used.
In order to design primers for the target genes necessary for gene expression analysis by real-time PCR, homologs of Arabidopsis thaliana oxidation stress-responsive genes in hop were searched for. The amino acid sequences of Arabidopsis thaliana ZAT10 (AGI code: AT1G27730) and ZAT12 (AGI code: AT5G59820) were obtained from TAIR (https://www.arabidopsis.org/), and the nucleotide sequences of the gene homologs were obtained using Hopbase (http:/hopbase.cgrb.oregonstate.edu/). […] As the reference gene, the nucleotide sequence of the homolog of Arabidopsis thaliana EF1α (AGI code: AT1G18070) was obtained. The hop homolog genes were designated as H1ZAT10, H1ZAT12, and HIEF1α, respectively.
The leaves in the first and the second nodes from the apical buds of the tissue-cultured seedlings were sampled 1.5 months after the initiation of subculture and inoculated into a liquid medium consisting of a ½ Murashige and Skoog Plant Salt Mixture and 2 (w/v) % glucose. Specifically, a liquid medium was dispensed at 5 ml/well to a 6-well microplate, and 5 hop leaves were mounted thereon. […]
Thereafter, the relative expression levels of the target genes upon N-acetylglutamic acid treatment were calculated by the ΔΔCt method.

Arabidopsis thaliana = test: High-temperature stress resistance in liquid culture (leaf chlorosis, chlorophyll content), Example 1; format: in vivo, Arabidopsis thaliana (Col-0); settings: for chlorosis of plants caused by the high-temperature treatment: 2 h before 44° C. for 60 minutes, then 22° C. 3 days; for chlorophyll content (fresh weight basis): 44° C. 60 minutes, vs group not subjected to the treatment
Excerpt: A wild-type Arabidopsis thaliana strain (accession: Col-0) was used as an experimental material. Seeds were purchased from Inplanta Innovations Inc. (https://www.inplanta.jp/).
as §1
as §2, with “(bleach for kitchen available from Kao” for “(Kao”, “24-well” for “12-well”, “3” for “5”
Before high-temperature treatment, a stock solution of N-acetylglutamic acid (Tokyo Chemical Industry Co., Ltd.) was added to Arabidopsis thaliana 7 days after seeding to the final concentration of 0, 0.01, 0.05, and 0.1 mM in the media, followed by incubation for 2 hours. Sterile distilled water was used as a solvent for the stock solution of N-acetylglutamic acid.
High-temperature treatment was performed with the use of an incubator. The plate was transferred to an incubator maintained at 44° C., incubated for 60 minutes to perform high-temperature treatment, and cultured in an incubator maintained at 22° C. for 3 days.
Plants are known to lose the green pigment chlorophyll from tissue such as leaves upon high-temperature stress exposure and become chlorotic as a consequence. Accordingly, the chlorophyll content was quantified after the high-temperature treatment to evaluate activity of N-acetylglutamic acid to enhance high-temperature stress resistance. The chlorophyll content was quantified in accordance with the method of Yamaguchi et al. (Nature Commun., Jun. 9, 2021, 12 [1]: 3480). To the collected plants, N,N-dimethylformamide (FUJIFILM Wako) was added at 1 ml/well, and incubation was performed at 4° C. in the dark overnight to extract the chlorophyll. Thereafter, the absorbance of the chlorophyll extract was measured at 647 nm (A647) and 664 nm (A664), respectively, using a microspectrophotometer (NanoPhotometer, Implen), and the chlorophyll content was calculated in accordance with the formula: 19.43×A647+8.05×A664. […] Thus, the chlorophyll content was calculated on a fresh weight basis to compare the chlorophyll content among samples.

CC(=O)N[C@@H](CCC(=O)O)C(=O)O [N-acetylglutamic acid]
fold induction at 100 µM (HAC1): 1.2
fold induction at 1000 µM (H1ZAT12): 1.9
chlorosis of plants caused by the high-temperature treatment (Arabidopsis thaliana; 0.05 mM in medium): suppressed
chlorophyll content (fresh weight basis) (Arabidopsis thaliana; 0.05 mM): significantly higher
chlorosis of plants caused by the high-temperature treatment (Arabidopsis thaliana; 0.1 mM in medium): suppressed
chlorophyll content (fresh weight basis) (Arabidopsis thaliana; 0.1 mM): significantly higher
